The text below walks through data of patent publication US8629100B2, “Method of inhibiting clostridium difficile by administration of oritavancin” (The Medicines Company, priority 2007, dated 2014).

A word on the MIC90: it is the lowest concentration that inhibits either 90% of growth or 90% of the strains tested, depending on the study. Higher therefore signals weaker potency. By MIC is commonly meant the least concentration at which growth counts as inhibited.

Values after ≈ are worked out from the molar mass of the structure shown. Where two headings read alike, the source gives them in different places.

Data set [1] has as its system genotypically distinct C. difficile (n = 33). As to the kind of experiment: Agar incorporation MIC. Format: cell-based. Particulars: for MIC range / MIC90: AI; for MIC90 / MIC: Clostridioides difficile. The text has this:
Thirty-three genotypically distinct (by PCR ribotyping) C. difficile isolates were selected from a library of strains at the Leeds General Infirmary (Leeds, UK). Representative isolates of epidemic C. difficile PCR ribotypes 001, 106 and 027 were included in the panel. Control isolates of Staphylococcus aureus ATCC 29213, Enterococcus faecalis ATCC 29212 and Bacteroides fragilis ATCC 25285 were included in all MIC determinations to ensure procedure accuracy.
Agar incorporation MICs were determined based on the method of Freeman and Wilcox (J Antimicrob Chemother 2001; 47: 244-6). Briefly, bacteria were cultured in Schaedler's anaerobic broth (Oxoid, Basingstoke, UK) at 37° C. for 24 h in an anaerobic cabinet (Don Whitley Scientific, Shipley). […] Oritavancin was prepared in 0.002% P80. All antimicrobial solutions were sterilized by filtration through 0.22 um syringe filters. […] Wilkins Chalgren agar (Oxoid) incorporating doubling dilutions of antimicrobial agents (0.03-16 mg/L) was prepared with and without 0.002% P80 and with and without 2% lysed horse blood (E&O Labs, Bonneybridge, UK). All media and diluents were pre-reduced overnight in the anaerobic cabinet. Bacterial cultures were diluted in sterile saline and inoculated onto the surface of agar incorporation agar plates using a multipoint inoculator (˜10^4 cfu). Agar incorporation plates were incubated anaerobically for 48 h. MIC endpoints were read as the lowest concentration of antimicrobial agent where there is no apparent growth (disregarding a visible haze of growth or a single colony).

Data set [2] concerns C. difficile PCR ribotype 027. In words: In vitro triple-stage chemostat human gut model of clindamycin-induced CDI. Particulars: for Decline of cytotoxin titres during instillation: 7 days; for Recrudescence of C. difficile spore germination, proliferation and cytotoxin production: after concentrations declined below limits of detection. The text has this:
A single isolate of C. difficile PCR ribotype 027 was investigated. This isolate was a clinical strain recovered during an epidemic of CDI at the Maine Medical Centre (Portland, USA) in 2005. It was supplied courtesy of Dr. Rob Owens and ribotyped at the Anaerobe Reference Laboratory (Cardiff, Wales, UK) by Dr Jon Brazier.
The gut model was designed to allow the study of the intestinal microflora in the low pH, carbohydrate-excess conditions of the proximal colon and the carbohydrate-depleted, non-acidic conditions of the distal colon (Macfarlane et al., Microb Ecol 1998; 35: 180-7). Microbiological and physicochemical measurements within the gut model vessels were validated against the intestinal contents of sudden death victims (Macfarlane et al., Microb Ecol 1998; 35: 180-7). Each gut model consists of three fermentation vessels connected in a weir cascade system top-fed with growth medium at a controlled rate (D=0.015 h^−1). Vessels were sparged with oxygen-free nitrogen to ensure anaerobiosis, heated via a water-jacketed system (37° C.) and maintained at specific pH using fermenter controller units (Biosolo 3, Brighton Systems, UK) delivering 0.5 M HCl/NaOH. Vessel 1 (280 mL) was operated at pH 5.5 and high substrate availability, thus reflecting the conditions within the proximal colon, while vessels 2 and 3 (300 mL) were operated at pH 6.2 and 6.8, respectively, with low substrate availability, thus reflecting the conditions within the distal colon. The gut model was primed with faecal slurry ˜10% (w/v) and allowed to equilibrate with respect to bacterial populations for 14 days.
Faecal samples were collected from five healthy elderly (>65 years) volunteers and immediately transported to the laboratory under anaerobic conditions (GasPak, Oxoid, Basingstoke, UK). […] C. difficile-negative faeces were pooled and a coarse-filtered slurry (˜10% w/v) in sterile pre-reduced phosphate-buffered saline was prepared. Vessels of the gut models were filled to approximately two-thirds volume, and the growth medium pumps were started.
Major culturable components of the indigenous gut microflora and C. difficile were enumerated by viable counting (log10 cfu/mL) on selective and non-selective agars as reported previously (Freeman et al., J Antimicrob Chemother 2005; 56: 717-25). Bacterial groups enumerated were: total facultative anaerobes, facultatively anaerobic lactose fermenters, total anaerobes, bifidobacteria, Bacteroides fragilis group, total clostridia, lactobacilli, enterococci, total C. difficile and C. difficile spores. C. difficile cytotoxin production was quantified using a Vero cell cytotoxicity assay as described previously (Freeman et al., J Antimicrob Chemother 2003; 52: 96-102). Cytotoxin titres were expressed in log10 relative units (RU). Only C. difficile total bacterial counts, spore counts and cytotoxin titres were enumerated in vessel 1 of the gut model.
The use of the gut model to evaluate therapeutic interventions for CDI has been described previously (Freeman et al., J Antimicrob Chemother 2007; 60: 83-91; Freeman et al., J Antimicrob Chemother 2005; 56: 717-25). Briefly, following inoculation of each gut model with the faecal slurry, no further interventions were made for 13 days (period A). During period A, bacterial populations were enumerated every 2 days. Next (day 14), vessel 1 of each gut model was inoculated with a single inoculum of ˜10^7 cfu C. difficile PCR ribotype 027 spores (Freeman et al., J Antimicrob Chemother 2003; 52: 96-102), with no further interventions for 7 days (period B). From this point onwards, bacterial populations were enumerated daily.

Another data set concerns C. difficile ATCC 43255. As to the kind of experiment: Hamster model of CDI, intravenous administration. Format: in vivo, Syrian golden hamsters. On the procedure:
C. difficile ATCC 43255 was used in all experiments. This strain was originally isolated from an abdominal wound and is toxin A+/B+ and binary toxin negative. C. difficile spores were prepared for the infection by incubating C. difficile cells on blood agar plate at 37° C. anaerobically for 7 days, to promote spore formation. The C. difficile colonies were resuspended in phosphate buffered saline (PBS) and mixed with an equal volume of 100% ethanol for one hour. The spores were centrifuged, resuspended in PBS, aliquoted, and frozen at −20° C. Spores were diluted in PBS for oral inoculation into hamsters.
All studies were performed in accordance with protocols that were approved by the Institutional Animal Care and Use Committee. […] One day later (Day 0), animals were infected orally with 10^5 C. difficile spores by oral gavage.
Starting on Day 1 post-infection, either vehicle, vancomycin (50 mg/kg), or oritavancin formulated in 10% hydroxypropyl β-cyclodextrin (HPCD) (50 mg/kg) was administered intravenously […] to the hamsters (n=10/group). A total of either 1, 2 or 3 doses of oritavancin was injected on Days 1, 3, and 5, respectively (q2d).
The infected hamsters received the first dose of antibiotic on day 1 and treatment was repeated each 2 days for up to five days; an untreated group was used as control.

Where [3] appears, read: read-out: GEO MIC, AI, P80 no LHB.
[4] abbreviates: read-out: GEO MIC, AI, P80 with LHB.
Where [5] appears, read: read-out: GEO MIC, AI, no P80 no LHB.
[6] abbreviates: read-out: GEO MIC, AI, no P80 with LHB.
[7] abbreviates: day 2 of instillation (64 mg/L two times daily), vessel 3.
The mark [8] stands for this setting: three intravenous doses 50 mg/kg q2d (Days 1, 3, 5).

Take `CN[C@H](CC(C)C)C(=O)N[C@H]1C(=O)N[C@@H](CC(N)=O)C(=O)N[C@H]2C(=O)N[C@H]3C(=O)N[C@H](C(=O)N[C@H](C(=O)O)c4cc(O)cc(O)c4-c4cc3ccc4O)[C@H](O[C@H]3C[C@](C)(N)[C@@H](O)[C@H](C)O3)c3ccc(c(Cl)c3)Oc3cc2cc(c3O[C@@H]2O[C@H](CO)[C@@H](O)[C@H](O)[C@H]2O[C@H]2C[C@](C)(NCc3ccc(-c4ccc(Cl)cc4)cc3)[C@@H](O)[C@H](C)O2)Oc2ccc(cc2Cl)[C@H]1O` [oritavancin, N-(4-(4-chlorophenyl)benzyl)A82846B]: the MIC range in data set [1] (P80 no LHB) was 2 to 4 µg/mL; in data set [1] (P80 with LHB) it was 1 to 4 µg/mL; in data set [1] (no P80 no LHB), 2 to 4 µg/mL; in data set [1] (no P80 with LHB), 0.5 to 4 µg/mL. The MIC90 in data set [1] (P80 no LHB) came out at 4 µg/mL (≈ 2.23 µM); in data set [1] (P80 with LHB) it was 4 µg/mL (≈ 2.23 µM); in data set [1] (no P80 no LHB) it was 4 µg/mL (≈ 2.23 µM); in data set [1] (no P80 with LHB), 2 µg/mL (≈ 1.12 µM). Further, the MIC in data set [1] (setting [3]) came to 2.7 µg/mL (≈ 1.51 µM); in data set [1] (setting [4]), 1.58 µg/mL (≈ 0.881 µM); in data set [1] (setting [5]), 2.33 µg/mL (≈ 1.3 µM); in data set [1] (setting [6]) it was 1.72 µg/mL (≈ 0.959 µM). The “Longer time for cytotoxin titres to decline to undetectable levels than in vancomycin experiment” value in data set [2] amounted to 5 days. Moreover, the “C. difficile total counts and spore counts” value in data set [2] (1 day later (day 3 of instillation) and rest of period E, LOD ~1.22 log10 cfu/mL) is listed as “below the limits of detection”. Also, the “Time to cytotoxin titres below the limits of detection” value in data set [2] (after cessation of instillation, period F) is given as not above 10 days. The “Decline of C. difficile spore counts” value in data set [2] (setting [7]) is reported as approximately 2 log10 cfu/mL. Further, the “Decline of C. difficile total counts” value in data set [2] (setting [7]) is given as approximately 2 log10 cfu/mL. Moreover, the “Decline of cytotoxin titres during instillation” value in data set [2] (period E) stood at 3 RU. Also, the “Recrudescence of C. difficile spore germination, proliferation and cytotoxin production” value in data set [2] (period F) is reported as “No recrudescence”. Moreover, the “C. difficile isolation after cessation of instillation” value in data set [2] (period F, remainder of the experiment) is “isolated sporadically at the limits of detection”. Also, the “Survival longer than animals with equivalent dose and regimen (2×q2d) of vancomycin” value with C. difficile ATCC 43255 (2 doses 50 mg/kg intravenous) was determined as 5 days. For the same compound, the “Survival prolonged compared to untreated animals” value turned out to be 4 days with C. difficile ATCC 43255 (one intravenous dose 50 mg/kg (Day 1), in 10% HPCD); 7 days in the data set with C. difficile ATCC 43255 (setting [8]); 5 days with C. difficile ATCC 43255 (two intravenous doses 50 mg/kg q2d (Days 1 and 3), in 10% HPCD).

On to `CN[C@H](CC(C)C)C(=O)N[C@H]1C(=O)N[C@@H](CC(N)=O)C(=O)N[C@H]2C(=O)N[C@H]3C(=O)N[C@H](C(=O)N[C@H](C(=O)O)c4cc(O)cc(O)c4-c4cc3ccc4O)[C@H](O)c3ccc(c(Cl)c3)Oc3cc2cc(c3O[C@@H]2O[C@H](CO)[C@@H](O)[C@H](O)[C@H]2O[C@H]2C[C@](C)(N)[C@H](O)[C@H](C)O2)Oc2ccc(cc2Cl)[C@H]1O` [vancomycin], for which the MIC range in data set [1] (P80 no LHB) was in the range of 1 to 4 µg/mL; in data set [1] (P80 with LHB) it was 0.5 to 2 µg/mL; in data set [1] (no P80 no LHB) it was 0.5 to 2 µg/mL; in data set [1] (no P80 with LHB), 1 to 4 µg/mL. Further, the MIC90 came to 2 µg/mL (≈ 1.38 µM) in data set [1] (P80 no LHB), 1 µg/mL (≈ 0.69 µM) in data set [1] (P80 with LHB), 2 µg/mL (≈ 1.38 µM) in data set [1] (no P80 no LHB) and 2 µg/mL (≈ 1.38 µM) in data set [1] (no P80 with LHB). The MIC in data set [1] (setting [3]) stood at 1.3 µg/mL (≈ 0.897 µM); in data set [1] (setting [4]), 1 µg/mL (≈ 0.69 µM); in data set [1] (setting [5]) it was 1.51 µg/mL (≈ 1.04 µM); in data set [1] (setting [6]) it was 1.35 µg/mL (≈ 0.932 µM). Further, the “Time C. difficile remained as spores before recurrent germination, proliferation and cytotoxin production” value came out at 12 days in data set [2] (after cessation of instillation, vessel 2) and 13 days in data set [2] (after cessation of instillation, vessel 3). For the same compound, the “Effect on C. difficile spore counts” value in data set [2] (during instillation, period E) was “unaffected”. The “Decline of cytotoxin titres during instillation” value in data set [2] (period E) is reported as 3 RU. Also, the “C. difficile total counts by the end of the experiment” value in data set [2] (period F) is given as approximately 6 login cfu/mL. In data set [2] (period F), the “Cytotoxin titres by the end of the experiment” value was 5 RU. Moreover, the “Recrudescence of C. difficile spore germination, proliferation and cytotoxin production” value in data set [2] (period F) is on record as “Recrudescence”. Also, the “Proportional survival rate on Day 5” value in the data set on C. difficile ATCC 43255 (50 mg/kg q2d intravenous) is recorded as 30%. The “Treated animals that died between the second and third injections (Days 3 and 5)” value in the data set with C. difficile ATCC 43255 (50 mg/kg q2d intravenous) is recorded as 70%. Moreover, in the data set with C. difficile ATCC 43255 (setting [8]), the “Survival prolonged compared to untreated animals” value is listed as 8 days.
